Tests used:
rat ventricular myocytes = assay: Action potential recording on isolated rat ventricular myocytes; format: cell-based; settings: for APA: control 112.5 ± 6.3; for Vmax: control 226.9 ± 12.4; for RMP: control −80.1 ± 2.7
Method: (§1) The Tyrode’s solution contained (mM): 126 NaCl, 5.4 KCl, 1.8 CaCl2, 1 MgCl2, 0.33 NaH2PO4, 10 HEPES and 10 glucose, pH 7.4 (adjusted with NaOH). The Ca^2+-free Tyrode’s solution was prepared by removing CaCl2 from the Tyrode’s solution. The Kreb’s solution used for cell storage contained (mM): 70 glutamic acid, 30 KCl, 15 taurine, 0.5 MgCl2, 10 KH2PO4, 0.5 EGTA, 10 HEPES, 10 glucose, and 1% albumin, pH 7.4 (adjusted with KOH). The enzyme solution used for the rat cardiomyocyte isolation contained 0.08 g/L collagenase (type II) and 1.0 g/L BSA in Kreb’s solution. For action potential recording on cardiomyocyte, the pipette solution contained (mM): 100 potassium aspartate, 30 KCl, 1 MgCl2, 5 Mg-ATP, 5 EGTA, 5 HEPES, pH 7.3 (adjusted with KOH); the Tyrode’s solution was used as the standard bath solution. For whole-cell recording of IKs on myocytes, the pipette solution contained (mM): 125 potassium aspartate, 20 KCl, 1 MgCl2, 5 Mg-ATP, 10 EGTA, 5 HEPES, pH 7.3 (adjusted with KOH); the bath solution contained (mM): 132 NaCl, 4 KCl, 1.8 CaCl2, 1.2 MgCl2, 10 HEPES, 5 glucose, pH 7.4 (adjusted with NaOH). 3 μM nifedipine and 5 μM E-4031 were used to block the calcium current and IKr, respectively. For whole-cell recording on HEK-293 cells, the pipette solution contained (mM): 140 KCl, 2 MgCl2, 10 HEPES, 0.1 EGTA, 4 K2-ATP, pH 7.3 (adjusted with KOH); the bath solution contained (mM): 120 NaCl, 5 KCl, 1.5 CaCl2, 1 MgCl2, 10 HEPES, 10 glucose, pH 7.4 (adjusted with NaOH). For single-channel recording, the pipette solution (extracellular) contained (mM): 145 KCl, 10 HEPES, 10 glucose, pH 7.4 (adjusted with KOH); the bath solution (intracellular) contained (mM): 145 KCl, 1.2 MgCl2, 10 HEPES, 0.1 EGTA, pH 7.38 (adjusted with KOH).
Single ventricular myocytes were isolated from adult rat hearts via enzymatic dissociation as previously described. Briefly, the rats were anesthetised with 25% chloral hydrate (0.1 g/100 g). Their hearts were excised rapidly and retrogradely perfused on a Langendorff apparatus with a Ca^2+-free Tyrode’s solution for 5 min before the perfusate was switched to an enzymatic solution for 10–20 min. The perfusate was finally changed to Kreb’s solution for 5 min. The perfusates were bubbled with 95% O2 + 5% CO2 and maintained at 37 °C. The ventricles w ere cut into small chunks and gently agitated in Kreb’s solution. The cells were filtered through nylon mesh (pore size 200 μm) and stored in Kreb’s solution at 4 °C.
Action potentials were elicited at 1 Hz by 2 ms current pulses applied using the patch pipette.
Cell suspensions were transferred into a chamber on the stage of a Nikon Eclipse Ti inverted microscope (Tokyo, Japan). The whole-cell recordings were performed using isolated single ventricular myocytes. Patch electrodes were pulled from a horizontal microelectrode puller (P-1000, Sutter Instrument Co, USA) and fire polished to final tip resistance of 4.0–8.0 MΩ when filled with internal solutions. Signals were amplified with an Axopatch 200B amplifier (Axon Instruments, USA) and filtered at 1 kHz. The pCLAMP 9.0 software was used to generate current and voltage clamp protocols, acquire data, and analyse the current traces. The whole-cell series resistance was compensated to more than 80%. All of the experiments were performed at room temperature (22 ± 1 °C). The whole-cell IK1 was elicited by a ramp voltage protocol from −140 to + 40 mV in 1 s, or at a 0 mV holding potential to test potentials from −140 to + 40 mV in 10 mV increments. The IK1 was calculated as the difference between the peak inward current and the holding current level. The whole-cell Kv7.1/IKs were elicited from a −30 mV holding potential to test potentials from −80 to + 40 mV in 10 mV increments.

Kir2.3 = target: T1, Kir2.3 (Homo sapiens, UniProt P48050); assay: Whole-cell patch clamp of Kir2.3 currents (ramp voltage protocol) in transfected HEK-293 cells; format: cell-based
T1 sequence (P48050 1-445): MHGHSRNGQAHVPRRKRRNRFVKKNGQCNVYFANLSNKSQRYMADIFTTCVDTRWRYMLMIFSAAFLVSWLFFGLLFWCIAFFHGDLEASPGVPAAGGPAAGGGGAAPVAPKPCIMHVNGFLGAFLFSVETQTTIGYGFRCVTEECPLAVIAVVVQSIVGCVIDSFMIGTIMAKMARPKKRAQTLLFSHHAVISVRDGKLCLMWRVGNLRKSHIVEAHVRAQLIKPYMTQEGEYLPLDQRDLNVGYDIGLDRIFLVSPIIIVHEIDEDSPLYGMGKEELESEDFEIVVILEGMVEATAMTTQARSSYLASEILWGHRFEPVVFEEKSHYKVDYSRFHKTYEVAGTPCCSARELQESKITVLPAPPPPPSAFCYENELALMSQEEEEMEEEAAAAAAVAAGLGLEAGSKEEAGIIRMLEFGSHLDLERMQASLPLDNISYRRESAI
Method: as §1, with “3 μM nifedipine and 5 μM E-4031 were used to block the calcium current and IKr, respectively. For whole-cell recording on HEK-293 cells, the pipette solution contained (mM): 140 KCl, 2 MgCl2, 10 HEPES, 0.1 EGTA, 4 K2-ATP, pH 7.3 (adjusted with KOH); the bath solution contained (mM): 120 NaCl, 5 KCl, 1.5 CaCl2, 1 MgCl2, 10 HEPES, 10 glucose, pH 7.4 (adjusted with NaOH). For single-channel recording, the pipette solution (extracellular) contained (mM): 145 KCl, 10 HEPES, 10 glucose, pH 7.4 (adjusted with KOH); the bath solution (intracellular) contained (mM): 145 KCl, 1.2 MgCl2, 10 HEPES, 0.1 EGTA, pH 7.38 (adjusted with KOH).” left out
Cell suspensions were transferred into a chamber on the stage of a Nikon Eclipse Ti inverted microscope (Tokyo, Japan). […] The IK1 was calculated as the difference between the peak inward current and the holding current level. […]

SMILES: O=c1c(-c2ccc(O)cc2)coc2c([C@@H]3O[C@H](CO)[C@@H](O)[C@H](O)[C@H]3O)c(O)ccc12 [Puerarin, 8-c-glucoside of daidzein]
- APD50 (rat ventricular myocytes; puerarin 0.01 mM, control 71.8 ± 11.8): 86.9 ± 10.7 ms
- APA (rat ventricular myocytes; puerarin 0.01 mM): 109.8 ± 8.5 mV
- APD90 (rat ventricular myocytes; puerarin 0.01 mM, control 164.6 ± 21.4): 188.3 ± 11.5 ms
- Vmax (rat ventricular myocytes; puerarin 0.01 mM): 217.5 ± 10.7 V/s
- RMP (rat ventricular myocytes; puerarin 0.01 mM): −80.5 ± 2.2 mV
- effect on RMP, APA and Vmax (rat ventricular myocytes; puerarin 100 μM): not affected
- effect on isoproterenol-reduced APD (APD50, APD90) (rat ventricular myocytes; puerarin 100 μM with isoproterenol 10 nM): significantly offseted the reduced effect of isoproterenol
- APD50 (rat ventricular myocytes; puerarin 100 μM, from (71.8 ± 11.8) mS): 100.5 ± 14.1 mS
- APD90 (rat ventricular myocytes; puerarin 100 μM, from (164.6 ± 21.4) mS): 221.6 ± 25.7 mS
- APD50 (rat ventricular myocytes; puerarin 0.1 mM, control 71.8 ± 11.8): 100.5 ± 14.1 ms
- APA (rat ventricular myocytes; puerarin 0.1 mM): 114.2 ± 4.9 mV
- APD90 (rat ventricular myocytes; puerarin 0.1 mM, control 164.6 ± 21.4): 221.6 ± 25.7 ms
- Vmax (rat ventricular myocytes; puerarin 0.1 mM): 242.1 ± 13.8 V/s
- RMP (rat ventricular myocytes; puerarin 0.1 mM): −80.3 ± 1.6 mV
- APD50 (rat ventricular myocytes; puerarin 1 mM, control 71.8 ± 11.8): 123.6 ± 25.4 ms
- APA (rat ventricular myocytes; puerarin 1 mM): 115.9 ± 6.2 mV
- APD90 (rat ventricular myocytes; puerarin 1 mM, control 164.6 ± 21.4): 278.7 ± 28.2 ms
- Vmax (rat ventricular myocytes; puerarin 1 mM): 236.1 ± 15.9 V/s
- RMP (rat ventricular myocytes; puerarin 1 mM): −79.7 ± 1.5 mV
- APD50 (rat ventricular myocytes; puerarin 10 mM, control 71.8 ± 11.8): 131.4 ± 19.6 ms
- APA (rat ventricular myocytes; puerarin 10 mM): 112.6 ± 4.7 mV
- APD90 (rat ventricular myocytes; puerarin 10 mM, control 164.6 ± 21.4): 330.1 ± 22.3 ms
- Vmax (rat ventricular myocytes; puerarin 10 mM): 238.4 ± 11.5 V/s
- RMP (rat ventricular myocytes; puerarin 10 mM): −75.3 ± 2.4 mV
- APD50 (rat ventricular myocytes; puerarin 100 mM, control 71.8 ± 11.8): 146.9 ± 21.8 ms
- APA (rat ventricular myocytes; puerarin 100 mM): 113.8 ± 5.1 mV
- APD90 (rat ventricular myocytes; puerarin 100 mM, control 164.6 ± 21.4): 415.6 ± 28.4 ms
- Vmax (rat ventricular myocytes; puerarin 100 mM): 240.6 ± 12.1 V/s
- RMP (rat ventricular myocytes; puerarin 100 mM): −74.7 ± 2.6 mV
- APD50 (rat ventricular myocytes; puerarin 200 mM, control 71.8 ± 11.8): 162.3 ± 23.5 ms
- APD90 (rat ventricular myocytes; puerarin 200 mM, control 164.6 ± 21.4): 439.5 ± 29.6 ms
- RMP (rat ventricular myocytes; puerarin 200 mM): −73.5 ± 2.1 mV
- APA (rat ventricular myocytes; puerarin): 111.7 ± 5.6 mV
- Vmax (rat ventricular myocytes; puerarin): 237.8 ± 10.4 V/s
- effect on Kir2.3 currents at low concentrations (Kir2.3; 10 μM, 100 μM, 1 mM): less effect
- Hill coefficient, inhibition of Kir2.3 (Kir2.3; non-linear Hill fit): 0.984
